{
  "source": "patent US20110039770A1",
  "about": "“INHIBITORS OF PROTEIN KINASE C ISOFORMS AND USES THEREOF” (PHARMAGAP INC., priority 2005, published 2011)",
  "key": {"PKC-α": {"molecular_target": "PKC-α (Homo sapiens, UniProt P17252)", "assay": "Competition of PRE with PKC-α antibody binding on Western blot, Protocol A, IMR-32 lysate", "parameters": "endogenous PKC-α in (A) untreated human neuroblastoma (IMR-32) cells; endogenous in cells; host or cells: IMR-32 human neuroblastoma cells", "conditions": "IMR-32 cells"}, "[1]": {"system": "CCD-16Lu normal immortalized human lung fibroblasts", "assay": "Proliferation of normal lung cells (protocol of Example 14)", "type": "cell-based"}, "PKC alpha [2]": {"molecular_target": "T1, PKC alpha (Homo sapiens, UniProt P17252)", "assay": "PKC isoform protein levels in cancer cell lines after TIM 10 (Western blot)", "type": "cell-based", "parameters": "endogenous in cells; host or cells: MDA MB-231, T24, SKOV-3, MCF-7, Capan-2, NCI-H661, Calu-6, Calu-3", "conditions": "5 mM by pinocytic influx, 24 hrs", "experimental": "The effect of compound TIM 10 on the levels of protein for various PKC isoforms was assessed as generally described below in the following human cancer cell lines: MDA MB-231 breast adenocarcinoma cells (ATCC HTB-26); T24 bladder transitional cell carcinoma (ATCC HTB-4); SKOV-3 ovary adenocarcinoma (ATCC HTB-77); MCF-7 breast adenocarcinoma (ATCC HTB-22); Capan-2 pancreatic adenocarcinoma (ATCC HTB-80); NCI-H661 NSCL large cells (ATCC HTB-183); Calu-6 probable lung anaplastic carcinoma (ATCC HTB-56) and Calu-3 lung adenocarcinoma (ATCC HTB-55).\nCells representative of the different cancer types were cultured according to ATCC instructions. At subconfluence, the cells were trypsinized and compound 10 (5 mM) was incorporated into the cells by pinocytic influx endocytosis according to the manufacturer's instructions (Molecular Probe). Matching controls were treated accordingly except that vehicle was incorporated instead of compound 10. Following pinocytic influx, the cells were seeded and allowed to grow in fresh medium for 24 hrs. The cell cultures were further extracted using RIPA lysis buffer according to standard protocol. The protein content of each lysate was measured using Bradford protein estimation procedure (BioRad) and normalized. Following addition of sample buffer, the proteins from 15 μl of each extract were separated by electrophoresis, electro-transferred to nitrocellulose membranes and the various isoforms of PKC were detected using appropriate antibodies (Santa Cruz Biotechnology, Inc., CA). The relative intensity of bands of the expected molecular weight was estimated after scanning and the % decrease in the band intensity relative to control was calculated."}, "PKC delta": {"molecular_target": "PKC delta (Homo sapiens, UniProt Q05655)", "sequence (Q05655 whole entry, canonical isoform)": "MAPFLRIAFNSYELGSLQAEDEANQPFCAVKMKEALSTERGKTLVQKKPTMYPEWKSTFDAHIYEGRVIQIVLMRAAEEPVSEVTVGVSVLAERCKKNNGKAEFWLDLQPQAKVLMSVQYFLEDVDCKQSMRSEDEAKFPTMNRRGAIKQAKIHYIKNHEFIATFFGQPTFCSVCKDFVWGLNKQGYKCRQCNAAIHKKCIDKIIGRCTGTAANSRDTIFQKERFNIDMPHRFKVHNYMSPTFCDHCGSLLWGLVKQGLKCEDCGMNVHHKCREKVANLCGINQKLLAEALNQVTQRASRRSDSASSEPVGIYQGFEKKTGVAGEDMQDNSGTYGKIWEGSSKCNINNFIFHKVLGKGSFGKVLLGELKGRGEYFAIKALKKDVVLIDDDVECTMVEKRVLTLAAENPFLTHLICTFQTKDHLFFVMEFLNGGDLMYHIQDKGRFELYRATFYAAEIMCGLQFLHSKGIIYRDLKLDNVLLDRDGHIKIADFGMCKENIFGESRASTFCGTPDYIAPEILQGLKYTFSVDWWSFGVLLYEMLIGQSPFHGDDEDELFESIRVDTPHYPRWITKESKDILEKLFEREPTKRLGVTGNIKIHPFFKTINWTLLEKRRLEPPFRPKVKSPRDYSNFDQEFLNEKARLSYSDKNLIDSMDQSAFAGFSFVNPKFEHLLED", "assay": "Kinase-Glo Luminescent Kinase Assay", "type": "biochemical", "conditions": "read-out: % Inhibition PKC-δ", "experimental": "(§1) Compounds TIM 10, 11, 13, 14, 15, and 18-22 (see Table 28) were tested for their ability to inhibit the activity of PKC-alpha, beta 1, delta and epsilon isoforms the Kinase-Glo™ Luminescent Kinase Assay (Promega, Cat # V6712/3/4) following the manufacturer's instructions."}, "PKC alpha [3]": {"molecular_target": "T1, PKC alpha", "assay": "Kinase-Glo Luminescent Kinase Assay", "type": "biochemical", "conditions": "read-out: % Inhibition PKC-α", "experimental": "as §1"}, "[4]": {"system": "H661 human non-small cell lung cancer cells", "assay": "Inhibition of NSCLC cell proliferation (protocol of Example 14)", "type": "cell-based", "conditions": "for % Cell Survival (±S.D.): H661", "experimental": "The ability of compounds PKI 1, PKI 2 and PKI 3 to inhibit cancer cell proliferation was tested in vitro using the human neuroblastoma cell line IMR-32. Monolayer cell cultures were trypsinized and the test compound was added at the doses indicated in Table 24 and internalized by pinocytic endocytosis using Influx TM pinocytic cell-loading reagent, a kit from Molecular Probes (Eugene, Oreg.) following the manufacturer's recommendations. The indicated doses refer to the concentration in the loading medium, which was used on 1×10^6 cells in a 10 μl volume, i.e. contained 10 μg to 100 ug of test compound that provides […] per cell. It is worth noting, however, that only a small proportion of the compound is internalized using this technique, so the actual dose may be lower. The cells were treated on day 0 of the experiment. The cells loaded with test compound were cultured in 96 well plates (5,000 cells in 100 μl per well), and the proliferation was monitored over 3 consecutive days. The increase in cell population was quantified using a Hoechst reagent-based assay (modified from Rao and Otto, 1992, Analytical Biochem. 207:186-192) that measures the total DNA of the population. Fluorescence was measured using a Millipore CytoFluor 2350 plate reader (excitation at 360 nm and emission at 460 nm). The measurements were obtained as relative fluorescence intensity, a value that is directly correlated to the total number of cells. Data are expressed as a percentage of matching controls that were supplemented with culture medium alone.\nThe ability of the compound TIM 10 to inhibit cancer cell proliferation was tested in vitro using the human non-small cell lung cancer cell line H661 and following the general protocol described in Example 14. The effect of compound TIM 10 on CCD-16Lu cells (normal immortalized human lung fibroblasts) was also assessed by the same protocol. The results after 24, 48 and 72 hours of treatment are shown in Table 31 (H661 cell line) and FIG. 24 (A: CCD-16LU cell line, and B: H661 cell line). The change in dose effect at 48 and 72 hrs in normal cells (see FIG. 24A) for lower doses of compound TIM 10 was interpreted as being due to the probable intracellular degradation of compound TIM 10 which would reduce the level of compound TIM 10 to doses that no longer affect growth. In H661 cells, however, at doses of 1 mM compound TIM 10 was not degraded and its sub localization was not altered as assessed by western blot and immunocytochemistry imaging."}},
  "note": "Where a SMILES comes first, the peptide text is derived from it. The star is where a group is joined. PNA(A) = NCCN(CC(=O)*)C(=O)Cn1cnc2c(N)ncnc21",
  "data": [
    {"smiles": "CC[C@H](C)[C@H](NC(=O)[C@H](CO)NC(=O)[C@@H](NC(=O)CNC(=O)[C@@H](NC(=O)[C@H](CC(C)C)NC(=O)[C@H](CC(N)=O)NC(=O)[C@H](CCC(N)=O)NC(=O)[C@H](C)NC(=O)[C@H](CC(=O)O)NC(=O)CNC(=O)CNC(=O)[C@H](CCCCN)NC(=O)[C@@H](NC(=O)[C@H](CCC(=O)O)NC(=O)[C@H](CCC(N)=O)NC(=O)[C@@H](NC(=O)CNC(=O)[C@H](CCCCN)NC(=O)[C@H](C)NC(C)=O)[C@@H](C)CC)C(C)C)[C@@H](C)CC)[C@@H](C)CC)C(N)=O", "note": "[PRE 3] (Ac-AKGIQEVKGGDAQNLIGISI-NH2)", "values": [
      {"measurement": "Band Intensity", "setting": "PKC-α; 600 μg", "value": 0.888},
      {"measurement": "Band Intensity", "setting": "PKC-α; 3.75 mg", "value": 0.600},
      {"measurement": "Band Intensity", "setting": "PKC-α; 5.25 mg", "value": 0.603},
      {"measurement": "Band Intensity", "setting": "PKC-α; 7.5 mg", "value": 0.609}
    ]},
    {"smiles": "CC[C@H](C)[C@H](NC(=O)[C@H](CO)NC(=O)[C@@H](NC(=O)CNC(=O)[C@@H](NC(=O)[C@H](CC(C)C)NC(=O)[C@H](CC(N)=O)NC(=O)[C@H](CCC(N)=O)NC(=O)[C@H](C)NC(=O)[C@H](CC(=O)O)NC(=O)[C@H](CCCCN)NC(=O)CNC(=O)CNC(=O)CNC(=O)CNC(=O)CNC(=O)CNC(=O)CNC(=O)[C@H](CC(C)C)NC(=O)[C@H](CCCNC(=N)N)NC(=O)[C@H](Cc1ccccc1)NC(=O)[C@H](CCCCNC(=O)CN(CCN)C(=O)Cn1cnc2c(N)ncnc21)NC(=O)[C@H](CCCNC(=N)N)NC(=O)[C@H](CCCNC(=N)N)NC(=O)[C@H](Cc1ccccc1)NC(C)=O)[C@@H](C)CC)[C@@H](C)CC)C(N)=O", "note": "[TIM 10] (Ac-FRRK(PNA(A))FRLGGGGGGGKDAQNLIGISI-NH2)", "values": [
      {"measurement": "effect on normal lung cells relative to H661", "setting": "[1]", "value": "less affected"},
      {"measurement": "% decrease PKC-α band intensity relative to control", "setting": "PKC alpha [2]; Calu-3", "value": 21.8, "unit": "%"},
      {"measurement": "% decrease PKC-α band intensity relative to control", "setting": "PKC alpha [2]; Calu-6", "value": 57.8, "unit": "%"},
      {"measurement": "% decrease PKC-α band intensity relative to control", "setting": "PKC alpha [2]; Capan-2", "value": 53.4, "unit": "%"},
      {"measurement": "% decrease PKC-α band intensity relative to control", "setting": "PKC alpha [2]; H661", "value": 28.1, "unit": "%"},
      {"measurement": "% decrease PKC-α band intensity relative to control", "setting": "PKC alpha [2]; MCF-7", "value": 12.0, "unit": "%"},
      {"measurement": "% decrease PKC-α band intensity relative to control", "setting": "PKC alpha [2]; MDA-MB231", "value": 36.6, "unit": "%"},
      {"measurement": "% decrease PKC-α band intensity relative to control", "setting": "PKC alpha [2]; SK-OV-3", "value": 63.4, "unit": "%"},
      {"measurement": "% decrease PKC-α band intensity relative to control", "setting": "PKC alpha [2]; T24", "value": 42.5, "unit": "%"},
      {"measurement": "inhibition at 15 µM", "setting": "PKC delta; 15.0 μM", "value": 15.8, "unit": "%"},
      {"measurement": "inhibition at 30 µM", "setting": "PKC delta; 30.0 μM", "value": 22.1, "unit": "%"},
      {"measurement": "inhibition at 15 µM", "setting": "PKC alpha [3]; 15.0 μM", "value": 31.4, "unit": "%"},
      {"measurement": "inhibition at 30 µM", "setting": "PKC alpha [3]; 30.0 μM", "value": 28.6, "unit": "%"},
      {"measurement": "% Cell Survival (±S.D.)", "setting": "[4]; 100 μM, 24 Hours", "value": "97 (6) %"},
      {"measurement": "% Cell Survival (±S.D.)", "setting": "[4]; 100 μM, 48 Hours", "value": "85 (3) %"},
      {"measurement": "% Cell Survival (±S.D.)", "setting": "[4]; 100 μM, 72 Hours", "value": "51 (5) %"},
      {"measurement": "% Cell Survival (±S.D.)", "setting": "[4]; 500 μM, 24 Hours", "value": "91 (5) %"},
      {"measurement": "% Cell Survival (±S.D.)", "setting": "[4]; 500 μM, 48 Hours", "value": "82 (2) %"},
      {"measurement": "% Cell Survival (±S.D.)", "setting": "[4]; 500 μM, 72 Hours", "value": "49 (7) %"},
      {"measurement": "% Cell Survival (±S.D.)", "setting": "[4]; 1 mM, 24 Hours", "value": "85 (9) %"},
      {"measurement": "% Cell Survival (±S.D.)", "setting": "[4]; 1 mM, 48 Hours", "value": "82 (2) %"},
      {"measurement": "% Cell Survival (±S.D.)", "setting": "[4]; 1 mM, 72 Hours", "value": "45 (6) %"},
      {"measurement": "% Cell Survival (±S.D.)", "setting": "[4]; 5 mM, 24 Hours", "value": "83 (7) %"},
      {"measurement": "% Cell Survival (±S.D.)", "setting": "[4]; 5 mM, 48 Hours", "value": "79 (2) %"},
      {"measurement": "% Cell Survival (±S.D.)", "setting": "[4]; 5 mM, 72 Hours", "value": "43 (5) %"},
      {"measurement": "intracellular degradation", "setting": "[4]; H661 cells, 1 mM, western blot and immunocytochemistry", "value": "not degraded"}
    ]}
  ]
}
